Consider 13 compounds from publication PMC11071649, “Synthesis and Selective Anticancer Activity Evaluation of 2-phenylacrylonitrile Derivatives as Tubulin Inhibitors” (Current Medicinal Chemistry, 2024).

A value given as a limit tells only on which side of the number the result lay.

What all share (type): cell-based, human
The subject of one assay is A549 lung cancer cell. The assay can be described thus: MTT anti-proliferative assay, A549. To be noted: MTT, 48 h. The procedure:
(§1) The anti-proliferation activities of the synthesized analogs were assessed by an in vitro MTT assay conducted on thirteen human cell lines. Their cytotoxic activities were evaluated by measuring the inhibition of net cell growth. […]
(§2) 1.6. Cell lines and cell culture
(§3) MTT was purchased from Sigma-Aldrich Co. (St. Louis, MO, USA). The PI and Annexin V-FITC apoptosis detection kit were purchased from Invitrogen (Eugene, OR, USA). All human cell lines were used in this study. […]
(§4) cell, MCF-7 breast cancer cell, MCF-10A normal breast cell, Raji B lymphoblastoid cell and diffuse large B-cell lymphoma SU-DHL-10 cell were initially purchased from American Type Culture Collection (ATCC, Manassas, Virginia). media, DMEM, and FBS were provided from Gibco Company.
(§5) 1.7. Cell growth inhibition assay (MTT assay)
(§6) The experiment was carried out according to the method of reference. Briefly, cells were plated in 96-well plates at a den- […]
(§7) the anti-proliferative activities were determined by MTT assay. […]
(§8) (Becton-Dickinson, Franklin Lakes, NJ). […]
(In general: Tetrazolium assays rely on reduction of a dye to a coloured formazan, in cell work by metabolically active cells.)

For the next assay, the system named is AGS gastric cancer cell. The assay can be described thus: MTT anti-proliferative assay, AGS. To be noted: for IC50: MTT, 48 h. The procedure:
as §1, §2, §3, §4, §5, §6, §7, §8

Assay [1] has as its system BEL-7402 liver cancer cell. The assay can be described thus: MTT anti-proliferative assay, BEL-7402. The note with it: MTT, 48 h. The procedure:
as §1, §2, §3, §4, §5, §6, §7, §8

Assay [2] has as its system HCT116 colectal cancer cell. Briefly: MTT anti-proliferative assay, HCT116. To be noted: for IC50: MTT, 48 h, read-out: IC50 HCT-116. The procedure:
as §1, §2, §3, §4, §5, §6, §7, §8

Assay [3] concerns HeLa cervical cancer cell. Briefly: MTT anti-proliferative assay, HeLa. The note with it: MTT, 48 h. The procedure: as §1, §2, §3, §4, §5, §6, §7, §8
A further assay relates to HepG2 hepatoma cell. Briefly: MTT anti-proliferative assay, HepG2. The note with it: for IC50: MTT, 48 h, read-out: IC50 HepG-2. The procedure: as §1, §2, §3, §4, §5, §6, §7, §8
In another assay the test system is L-02 normal liver cell. Briefly: MTT assay, L-02 normal cells. The note with it: 48 h. The procedure: as §1, §2, §3, §4, §5, §6, §7, §8
Assay [4] relates to MGC-803 late stage differentiation gastric cancer cell. The assay can be described thus: MTT anti-proliferative assay, MGC-803. To be noted: for IC50: MTT, 48 h. The procedure:
as §1, §2, §3, §4, §5, §6, §7, §8

In another assay the test system is MCF-7 breast cancer cell. The assay can be described thus: MTT anti-proliferative assay, MCF-7. To be noted: MTT, 48 h. The procedure:
as §1, §2, §3, §4, §5, §6, §7, §8

Assay [5] relates to MCF-10A normal breast cell. Briefly: MTT assay, MCF-10A normal cells. The note with it: 48 h. The procedure:
as §1, §2, §3, §4, §5, §6, §7, §8

Assay [6] deals with Raji B lymphoblastoid cell. The assay can be described thus: MTT anti-proliferative assay, Raji. To be noted: MTT, 48 h; read-out: IC50 Raji. The procedure: as §1, §2, §3, §4, §5, §6, §7, §8
Assay [7] relates to SGC-7901 early differentiation gastric cancer cell. Briefly: MTT anti-proliferative assay, SGC-7901. To be noted: for IC50: MTT, 48 h. The procedure: as §1, §2, §3, §4, §5, §6, §7, §8
Assay [8] concerns diffuse large B-cell lymphoma SU-DHL-10 cell. Briefly: MTT anti-proliferative assay, SU-DHL-10. The note with it: MTT, 48 h; read-out: IC50 SU-DHL-10. The procedure: as §1, §2, §3, §4, §5, §6, §7, §8

Usually IC50 stands for the concentration that gives 50% inhibition. `COc1ccc(/C=C(\C#N)c2ccc(OC(F)(F)F)cc2)cc1` [Compound 1a2j]: the IC50 with A549 lung cancer cell is greater than 100 µM; in the assay on AGS gastric cancer cell it was 21.1 ± 5.2 µM; in [1], greater than 100 µM; in assay [2] it was 42.5 ± 12.3 µM; in assay [3], greater than 100 µM; with HepG2 hepatoma cell, 72.6 ± 25.3 µM. Further, the IC50 in the assay on L-02 normal liver cell was greater than 100 µM; in [4] it was greater than 100 µM; with MCF-7 breast cancer cell it was greater than 100 µM; in assay [5], 94.1 ± 3.5 µM; in [6], greater than 100 µM; in [7], greater than 100 µM. In [8], the IC50 is greater than 100 µM. The “SI (selectivity index), IC50 (L-02)/IC50 (AGS)” value (shortened to “SI (selectivity index) … (AGS)”) in the assay on AGS gastric cancer cell was greater than 4.7. Also, the “SI (selectivity index), IC50 (L-02)/IC50 (HCT-116)” value in assay [2] is greater than 2.3. Moreover, in the assay with HepG2 hepatoma cell, the “SI (selectivity index), IC50 (L-02)/IC50 (HepG-2)” value is listed as greater than 1.3.

For the compound `COc1cccc(/C=C(\C#N)c2ccc(OC(F)(F)F)cc2)c1` [Compound 1a2k], the IC50 (with A549 lung cancer cell; with AGS gastric cancer cell; in assay [1]; in assay [2]; in assay [3]; in the assay on HepG2 hepatoma cell) was greater than 100 µM each time. In addition, the concentration for half-maximal inhibition (IC50) (with L-02 normal liver cell; in [4]; with MCF-7 breast cancer cell; in assay [5]; in assay [6]; in assay [7]) was greater than 100 µM each time. In addition, the IC50 in [8] was greater than 100 µM.

Turning to `COc1cc(/C=C(\C#N)c2ccc(OC(F)(F)F)cc2)cc(OC)c1OC` [Compound 1a2l], the 50% inhibitory concentration (IC50) (in the assay with A549 lung cancer cell; in the assay on AGS gastric cancer cell; in assay [1]; in [2]; in assay [3]; with HepG2 hepatoma cell) was greater than 100 µM each time. The IC50 (in the assay with L-02 normal liver cell; in assay [4]; with MCF-7 breast cancer cell; in [5]; in assay [6]; in [7]) was greater than 100 µM throughout. The IC50 in assay [8] was greater than 100 µM.

As to `CCCOc1ccc(/C=C(\C#N)c2ccc(OC(F)(F)F)cc2)cc1` [Compound 1a2m], the IC50 with A549 lung cancer cell is greater than 100 µM; in the assay on AGS gastric cancer cell, 87.2 ± 5.9 µM; in assay [1], greater than 100 µM; in [2], greater than 100 µM; in [3], greater than 100 µM; in the assay with HepG2 hepatoma cell, greater than 100 µM. The IC50 (in the assay with L-02 normal liver cell; in assay [4]; with MCF-7 breast cancer cell; in assay [5]; in assay [6]; in [7]) was greater than 100 µM in each case. In [8], the half-maximal inhibitory concentration (IC50) is greater than 100 µM. In addition, the “SI (selectivity index) … (AGS)” value in the assay on AGS gastric cancer cell was greater than 1.4.

Take `CCCCOc1ccc(/C=C(\C#N)c2ccc(OC(F)(F)F)cc2)cc1` [Compound 1a2n]: the IC50 (in the assay on A549 lung cancer cell; in the assay on AGS gastric cancer cell; in assay [1]; in assay [2]; in assay [3]; in the assay on HepG2 hepatoma cell) was greater than 100 µM each time. Moreover, the IC50 (in the assay on L-02 normal liver cell; in [4]; in the assay on MCF-7 breast cancer cell; in assay [5]; in assay [6]; in assay [7]) was greater than 100 µM throughout. Besides, the IC50 in assay [8] is greater than 100 µM.

`CCCCCOc1ccc(/C=C(\C#N)c2ccc(OC(F)(F)F)cc2)cc1` [Compound 1a2o]: the IC50 (in the assay with A549 lung cancer cell; in the assay on AGS gastric cancer cell; in [1]; in [2]; in [3]; in the assay on HepG2 hepatoma cell) was greater than 100 µM throughout. Further, the IC50 (in the assay on L-02 normal liver cell; in assay [4]; in the assay on MCF-7 breast cancer cell; in [5]; in assay [6]; in assay [7]) was greater than 100 µM throughout. The 50% inhibitory concentration (IC50) in [8] was greater than 100 µM.

For `CCCCCCOc1ccc(/C=C(\C#N)c2ccc(OC(F)(F)F)cc2)cc1` [Compound 1a2p], the IC50 (in the assay on A549 lung cancer cell; in the assay on AGS gastric cancer cell; in assay [1]; in [2]; in assay [3]; with HepG2 hepatoma cell) was greater than 100 µM in each case. Besides, the IC50 (in the assay on L-02 normal liver cell; in assay [4]; in the assay on MCF-7 breast cancer cell; in assay [5]; in [6]; in assay [7]) was greater than 100 µM in each case. Besides, in assay [8], the IC50 was greater than 100 µM.

`Cc1cccc(/C=C(\C#N)c2ccc(OC(F)(F)F)cc2)c1` [Compound 1a2q]: the 50% inhibitory concentration (IC50) (in the assay on A549 lung cancer cell; in the assay with AGS gastric cancer cell; in [1]; in assay [2]; in assay [3]; in the assay with HepG2 hepatoma cell) was greater than 100 µM throughout. In addition, the IC50 (in the assay on L-02 normal liver cell; in assay [4]; with MCF-7 breast cancer cell; in [5]; in assay [6]; in [7]) was greater than 100 µM each time. Moreover, the IC50 in [8] is greater than 100 µM.

As to `Cc1cc(C)c(/C=C(\C#N)c2ccc(OC(F)(F)F)cc2)c(C)c1` [Compound 1a2r], the IC50 (in the assay on A549 lung cancer cell; with AGS gastric cancer cell; in [1]; in assay [2]; in assay [3]; with HepG2 hepatoma cell) was greater than 100 µM each time. Also, the IC50 (with L-02 normal liver cell; in [4]; in the assay on MCF-7 breast cancer cell; in assay [5]; in assay [6]; in assay [7]) was greater than 100 µM in each case. The IC50 in assay [8] is greater than 100 µM.

With `N#C/C(=C\c1ccc(N2CCOCC2)cc1)c1ccc(OC(F)(F)F)cc1` [Compound 1a2s], the IC50 (in the assay on A549 lung cancer cell; in the assay with AGS gastric cancer cell; in assay [1]; in [2]; in assay [3]; with HepG2 hepatoma cell) was greater than 100 µM each time. In addition, the IC50 (in the assay with L-02 normal liver cell; in [4]; in the assay with MCF-7 breast cancer cell; in assay [5]; in assay [6]; in [7]) was greater than 100 µM in each case. Moreover, the IC50 in assay [8] is greater than 100 µM.

Consider `N#C/C(=C\c1ccc(N2CCCC2)cc1)c1ccc(OC(F)(F)F)cc1` [Compound 1a2t], for which the IC50 in the assay on A549 lung cancer cell was greater than 100 µM; in the assay with AGS gastric cancer cell, 89.8 ± 1 µM; in assay [1] it was greater than 100 µM; in [2] it was 30.8 ± 2.9 µM; in assay [3], greater than 100 µM; in the assay on HepG2 hepatoma cell it was greater than 100 µM. Besides, the IC50 is greater than 100 µM with L-02 normal liver cell; 41.5 ± 2.1 µM in assay [4]; greater than 100 µM in the assay with MCF-7 breast cancer cell; greater than 100 µM in assay [5]; greater than 100 µM in assay [6]; 57.2 ± 14.3 µM in assay [7]. In assay [8], the 50% inhibitory concentration (IC50) was greater than 100 µM. Further, the “SI (selectivity index) … (AGS)” value in the assay with AGS gastric cancer cell is on record as greater than 1.1. Besides, the “SI (selectivity index), IC50 (L-02)/IC50 (HCT-116)” value in assay [2] is reported as greater than 3.2. In assay [4], the “SI (selectivity index), IC50 (L-02)/IC50 (MGC-803)” value is given as greater than 2.4. For the same compound, the “SI (selectivity index), IC50 (L-02)/IC50 (SGC-7901)” value in [7] is greater than 1.7.

As to `N#C/C(=C\c1ccc(N2CCCCC2)cc1)c1ccc(OC(F)(F)F)cc1` [Compound 1a2u], the IC50 (in the assay with A549 lung cancer cell; in the assay on AGS gastric cancer cell; in assay [1]; in assay [2]; in assay [3]; with HepG2 hepatoma cell) was greater than 100 µM each time. For the same compound, the IC50 (with L-02 normal liver cell; in assay [4]; in the assay on MCF-7 breast cancer cell; in assay [5]; in [6]; in [7]) was greater than 100 µM throughout. In assay [8], the IC50 was greater than 100 µM.

As to `N#C/C(=C\c1ccco1)c1ccc(OC(F)(F)F)cc1` [Compound 1a3a], the IC50 (with A549 lung cancer cell; with AGS gastric cancer cell; in [1]; in [2]; in [3]; in the assay on HepG2 hepatoma cell) was greater than 100 µM each time. The IC50 (in the assay with L-02 normal liver cell; in assay [4]; in the assay with MCF-7 breast cancer cell; in [5]; in assay [6]; in assay [7]) was greater than 100 µM in each case. Also, the IC50 in assay [8] was greater than 100 µM.
